Measured values as given in the supplement of paper PMC11451515.

System: SEM cells
Assay: cell viability relative to DMSO control; higher = less cytotoxic
Conditions: 48 h
Procedure, shortened: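 Cells were incubated for 48 h at 37°C before CellTiter-Glo One luminescence was read. The cells were NOMO1 or SEM (500 cells/well) or P12-Ichikawa (1000 cells/well) leukemia cells, adapted for at least four passages in each medium and seeded in 1536-well plates (5 μl). Dosing used library compounds in DMSO applied by pin over 11 threefold points, 47 μM to 0.79 nM. Viability is the per-plate percentage of DMSO wells, with cell-free wells as background.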

[1] = HPLM + 10% dialyzed FBS, 0.000781 µM
[2] = HPLM + 10% dialyzed FBS, 0.00234 µM
[3] = HPLM + 10% dialyzed FBS, 0.00702 µM
[4] = HPLM + 10% dialyzed FBS, 0.0211 µM
[5] = HPLM + 10% dialyzed FBS, 0.0632 µM
[6] = HPLM + 10% dialyzed FBS, 0.19 µM
[7] = HPLM + 10% dialyzed FBS, 0.569 µM
[8] = HPLM + 10% dialyzed FBS, 1.71 µM
[9] = HPLM + 10% dialyzed FBS, 5.12 µM
[10] = HPLM + 10% dialyzed FBS, 15.4 µM
[11] = HPLM + 10% dialyzed FBS, 46.1 µM
[12] = RPMI 5 mM glucose + 10% FBS, 0.000781 µM
[13] = RPMI 5 mM glucose + 10% FBS, 0.00234 µM
[14] = RPMI 5 mM glucose + 10% FBS, 0.00702 µM
[15] = RPMI 5 mM glucose + 10% FBS, 0.0211 µM
[16] = RPMI 5 mM glucose + 10% FBS, 0.0632 µM
[17] = RPMI 5 mM glucose + 10% FBS, 0.19 µM
[18] = RPMI 5 mM glucose + 10% FBS, 0.569 µM
[19] = RPMI 5 mM glucose + 10% FBS, 1.71 µM
[20] = RPMI 5 mM glucose + 10% FBS, 5.12 µM
[21] = RPMI 5 mM glucose + 10% FBS, 15.4 µM
[22] = RPMI 5 mM glucose + 10% FBS, 46.1 µM
[23] = RPMI 5 mM glucose + 10% dialyzed FBS, 0.000781 µM
[24] = RPMI 5 mM glucose + 10% dialyzed FBS, 0.00234 µM
[25] = RPMI 5 mM glucose + 10% dialyzed FBS, 0.00702 µM
[26] = RPMI 5 mM glucose + 10% dialyzed FBS, 0.0211 µM
[27] = RPMI 5 mM glucose + 10% dialyzed FBS, 0.0632 µM
[28] = RPMI 5 mM glucose + 10% dialyzed FBS, 0.19 µM
[29] = RPMI 5 mM glucose + 10% dialyzed FBS, 0.569 µM
[30] = RPMI 5 mM glucose + 10% dialyzed FBS, 1.71 µM
[31] = RPMI 5 mM glucose + 10% dialyzed FBS, 5.12 µM
[32] = RPMI 5 mM glucose + 10% dialyzed FBS, 15.4 µM
[33] = RPMI 5 mM glucose + 10% dialyzed FBS, 46.1 µM

| Structure (SMILES) | cell viability [1] [%] | cell viability [2] [%] | cell viability [3] [%] | cell viability [4] [%] | cell viability [5] [%] | cell viability [6] [%] | cell viability [7] [%] | cell viability [8] [%] | cell viability [9] [%] | cell viability [10] [%] | cell viability [11] [%] | cell viability [12] [%] | cell viability [13] [%] | cell viability [14] [%] | cell viability [15] [%] | cell viability [16] [%] | cell viability [17] [%] | cell viability [18] [%] | cell viability [19] [%] | cell viability [20] [%] | cell viability [21] [%] | cell viability [22] [%] | cell viability [23] [%] | cell viability [24] [%] | cell viability [25] [%] | cell viability [26] [%] | cell viability [27] [%] | cell viability [28] [%] | cell viability [29] [%] | cell viability [30] [%] | cell viability [31] [%] | cell viability [32] [%] | cell viability [33] [%] |
| --- | --- | --- | --- | --- | --- | --- | --- | --- | --- | --- | --- | --- | --- | --- | --- | --- | --- | --- | --- | --- | --- | --- | --- | --- | --- | --- | --- | --- | --- | --- | --- | --- | --- |
| C[C@H]1Oc2cc(cnc2N)-c2c(nn(C)c2C#N)CN(C)C(=O)c2ccc(F)cc21 | 111 | 138 | 114 | 118 | 109 | 126 | 124 | 121 | 117 | 107 | 93.7 | 110 | 108 | 110 | 109 | 78.1 | 85.3 | 102 | 110 | 97.4 | 81.5 | 60.3 | 118 | 128 | 115 | 130 | 131 | 133 | 145 | 132 | 129 | 122 | 116 |
| N#C/C(=C1/Nc2ccccc2S1)c1ccnc(OCc2ccc(CN3CCOCC3)cc2)n1 | 103 | 97.2 | 112 | 101 | 109 | 108 | 106 | 100 | 121 | 108 | 99.3 | 114 | 98.1 | 107 | 115 | 99.4 | 115 | 115 | 117 | 102 | 110 | 87.7 | 85 | 84.4 | 118 | 110 | 111 | 100 | 113 | 113 | 104 | 109 | 87.8 |
| N[C@@H](Cc1ccc(O)c(O)c1)C(=O)O | 86.4 | 101 | 102 | 100 | 107 | 108 | 108 | 111 | 122 | 107 | 109 | 108 | 100 | 107 | 108 | 116 | 115 | 106 | 116 | 126 | 121 | 127 | 92.1 | 97.6 | 108 | 116 | 117 | 116 | 117 | 123 | 122 | 128 | 105 |
| N=C(N)Nc1ccc(C(=O)Oc2ccc3cc(C(=N)N)ccc3c2)cc1 | 95.5 | 87.7 | 87.7 | 92.8 | 96.7 | 25.8 | 102 | 105 | 95.4 | 99.4 | 79.2 | 91.5 | 87.6 | 85.5 | 83.1 | 86.1 | 21.5 | 88.7 | 93.6 | 88.8 | 93.4 | 84 | 112 | 90.4 | 87.3 | 113 | 91.7 | 29.6 | 99.6 | 110 | 92.3 | 110 | 80.4 |
| CO[C@@H]1[C@@H](O)[C@H](O)[C@@H](n2c3c(Cl)cccc3c3c4c(c5c6cccc(Cl)c6[nH]c5c32)C(=O)NC4=O)O[C@H]1CO | 99.7 | 90.8 | 105 | 112 | 96.9 | 81.2 | 54.5 | 13.8 | 9.51 | 5.16 | 5.04 | 137 | 118 | 113 | 112 | 108 | 70.1 | 28.1 | 11.5 | 6.56 | 4.38 | 4.8 | 99.2 | 113 | 95.1 | 100 | 92.4 | 82.9 | 43.1 | 11 | 7.94 | 4.29 | 3.62 |
| CCCCCN(CCC12CC3CC(CC(C3)C1)C2)C(=O)NCCCc1ccncc1 | 96.2 | 110 | 108 | 106 | 102 | 109 | 107 | 106 | 107 | 102 | 89.9 | 97.1 | 92.9 | 100 | 106 | 112 | 110 | 97.3 | 114 | 96.9 | 108 | 100 | 86.9 | 96 | 106 | 110 | 105 | 107 | 106 | 116 | 120 | 90.6 | 97 |
| C[C@@H](N)C1CC[C@@H](CC1)C(=O)NC2=CC=NC=C2 (some centres undefined) | 91.8 | 117 | 107 | 108 | 103 | 106 | 129 | 129 | 119 | 122 | 120 | 94 | 99.3 | 99.8 | 90.3 | 103 | 108 | 112 | 115 | 104 | 109 | 113 | 93.7 | 107 | 111 | 121 | 117 | 114 | 131 | 120 | 114 | 116 | 114 |
| C1CN\2C[C@@H](\N=C2S1)C3=CC=CC=C3 | 82.1 | 95 | 104 | 88.6 | 98.7 | 99.5 | 100 | 100 | 97.8 | 100 | 86.1 | 73.7 | 86.7 | 89.4 | 83.1 | 90.9 | 75.2 | 87.6 | 89.3 | 88 | 87.8 | 40.4 | 88.8 | 95.3 | 100 | 107 | 106 | 116 | 107 | 106 | 118 | 100 | 76.9 |
| Cc1cnc(Nc2ccc(CN3CCOCC3)cc2)nc1Nc1cccc([S+](=O)([O-])NC(C)(C)C)c1 | 65 | 83.2 | 77.8 | 72.9 | 83.4 | 39.3 | 58 | 23.1 | 5.99 | 2.23 | 1.78 | 87.5 | 86.9 | 102 | 87.8 | 83.5 | 44 | 59.3 | 19.4 | 5.03 | 2.53 | 2.58 | 69.5 | 81.9 | 82.4 | 86 | 84.2 | 37.7 | 20.7 | 16.5 | 6.18 | 2.42 | 2.01 |
| COc1ccc([S+](=O)([O-])Nc2cccnc2Nc2ccc(O)cc2)cc1 | 124 | 127 | 114 | 116 | 127 | 115 | 123 | 96.1 | 20.9 | 25.5 | 21.6 | 76.2 | 82.1 | 65.8 | 86.4 | 77.6 | 82.6 | 77.1 | 79.1 | 36.2 | 17.5 | 13.5 | 114 | 109 | 109 | 105 | 102 | 124 | 113 | 96.5 | 47.5 | 23.4 | 20.2 |
| CS[C@H]1SC[C@@H]2C(=O)N(C)[C@H](C(C)C)C(=O)OC[C@H](NC(=O)c3cnc4ccccc4n3)C(=O)N[C@H](C)C(=O)N(C)[C@H]1C(=O)N(C)[C@H](C(C)C)C(=O)OC[C@H](NC(=O)c1cnc3ccccc3n1)C(=O)N[C@H](C)C(=O)N2C | 81.1 | 59 | 37.5 | 14.2 | 7.27 | 7.08 | 7.54 | 7.91 | 7.3 | 6 | 5.18 | 76.5 | 47.9 | 25.6 | 9.07 | 6.95 | 7.44 | 7.22 | 7.34 | 7.64 | 6.82 | 5 | 66.4 | 44.7 | 34.2 | 11.8 | 7.65 | 8.72 | 8.82 | 8.65 | 8.6 | 7.68 | 5.52 |
| CC(C)Cn1cnc2c(N)nc3ccccc3c21 | 98.8 | 107 | 106 | 105 | 110 | 110 | 104 | 93.5 | 102 | 91.8 | 77.1 | 104 | 124 | 103 | 115 | 104 | 111 | 104 | 94.1 | 111 | 105 | 72.1 | 105 | 118 | 117 | 116 | 108 | 105 | 120 | 113 | 93.8 | 90.6 | 92 |
| CC(C)[N+]1(C)C2CCC1CC(OC(=O)C(CO)c1ccccc1)C2.O.[Br-] (centres undefined) | 96 | 97.8 | 107 | 91.3 | 98.7 | 108 | 93.7 | 113 | 91.4 | 69.4 | 64.5 | 111 | 103 | 106 | 96.6 | 125 | 119 | 105 | 108 | 85.9 | 40.7 | 42.3 | 93.2 | 98.2 | 109 | 109 | 120 | 116 | 123 | 130 | 90.2 | 40.3 | 41.9 |
| COc1ccc(C2(C#N)CCC(C(=O)O)CC2)cc1OC1CCCC1 (centres undefined) | 85.5 | 97.5 | 95.9 | 101 | 99.6 | 102 | 103 | 94.7 | 105 | 106 | 114 | 77.3 | 85.3 | 94.1 | 90.4 | 87.4 | 95.5 | 104 | 95.8 | 88.3 | 99.4 | 99.6 | 81.8 | 86.8 | 104 | 94.4 | 84.3 | 95.5 | 92.2 | 100 | 90.4 | 96.9 | 96.3 |
| Cc1cccc(-c2[nH]c(C(C)(C)C)nc2-c2ccc3c(c2)OCO3)n1 | 103 | 98.7 | 114 | 105 | 104 | 120 | 113 | 121 | 109 | 10.8 | 7.86 | – | – | – | – | – | – | – | – | – | – | – | 92.1 | 96.8 | 100 | 93 | 120 | 99.7 | 107 | 121 | 111 | 10.4 | 4.24 |
